{"source": "paper PMC8919384", "about": "(ACS Medicinal Chemistry Letters, 2022)", "key": {"Solubility": {"assay": "Solubility", "type": "physicochemical", "details": "pH 1.2, simulated gastric fluid"}, "A1 AR": {"target": "T1, A1 AR (Homo sapiens, UniProt P30542)", "T1 sequence (P30542 1-326)": "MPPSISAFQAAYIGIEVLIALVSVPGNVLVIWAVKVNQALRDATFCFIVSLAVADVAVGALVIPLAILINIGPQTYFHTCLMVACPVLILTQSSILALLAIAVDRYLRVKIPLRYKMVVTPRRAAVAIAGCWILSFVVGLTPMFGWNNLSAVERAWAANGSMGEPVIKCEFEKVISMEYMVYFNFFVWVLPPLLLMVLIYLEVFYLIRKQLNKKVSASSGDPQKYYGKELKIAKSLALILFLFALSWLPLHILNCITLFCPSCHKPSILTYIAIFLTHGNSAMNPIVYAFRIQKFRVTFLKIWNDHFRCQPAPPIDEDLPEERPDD", "details": "binding Ki"}, "[1]": {"tested_on": "adult rat model of focal cerebral ischemia", "details": "cited from earlier work"}, "lung metastasis model": {"tested_on": "lung metastasis model", "details": "cited from earlier work"}, "melanoma-bearing mice": {"tested_on": "melanoma-bearing mice", "details": "combined with anti-CTLA-4 mAb; cited from earlier work"}}, "data": [{"smiles": "Cn1cc(-c2cnc(N)n3nc(-c4ccco4)nc23)ccc1=O", "note": "[1a]", "values": [{"measurement": "solubility", "setting": "Solubility", "value": 1990, "unit": "µg/mL"}]}, {"smiles": "Cc1cnc(-c2nc3c(-c4ccc(=O)n(C)c4)cnc(N)n3n2)s1", "note": "[1d]", "values": [{"measurement": "selectivity for A1 AR over the A2A AR", "setting": "A1 AR", "value": "two-fold"}]}, {"smiles": "Nc1nc2c(cnn2CCc2ccccc2)c2nc(-c3ccco3)nn12", "note": "[SCH58261]", "values": [{"measurement": "ischemic brain damage", "setting": "[1]", "value": "reduced ischemic brain damage"}]}, {"smiles": "Nc1nc(NCCc2ccc(O)cc2)nc2nc(-c3ccco3)nn12", "note": "[ZM241385]", "values": [{"measurement": "tumor growth in a lung metastasis model", "setting": "lung metastasis model", "value": "significantly inhibited tumor growth"}, {"measurement": "tumor growth in melanoma-bearing mice", "setting": "melanoma-bearing mice", "value": "remarkable delay in tumor growth"}]}]}
